A word on the EC50: it is the concentration at which the effect is half-maximal. Usually IC50 stands for the concentration that gives 50% inhibition.

One assay addresses 229E Mpro (Human coronavirus 229E, UniProt P0C6X1). Put plainly: 229E Mpro enzymatic assay (standard methods, SARS-CoV2 Mpro assay given as exemplary). The class given is biochemical, human coronavirus (HCov) 229E. Summed up:
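IC50 for 229E Mpro by standard methods; exemplary SARS-CoV-2 protocol used C-His6-tagged Mpro from E. coli, 25 nM enzyme, 25 μM substrate (Km 13.5 μM), in Tris-HCl pH 7.3, NaCl, EDTA, TCEP, 0.1% BSA. Inhibition normalised to no-compound and full-effect controls; four-parameter fit.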

A further assay relates to HCov OC43. Put plainly: HCoV OC43 cytopathic effect (CPE) assay, CellTiter Glo. The format is cell-based, human coronavirus (HCov) OC43. In general terms: Cytopathic effects are the visible damage that an infection or toxin causes in cultured cells.
For assay [1], the target named is COVID-19 (nCoV-2019, SARS-CoV2) Mpro (Severe acute respiratory syndrome coronavirus 2, UniProt P0DTD1). In words: COVID-19 (nCoV-2019, SARS-CoV2) Mpro enzymatic assay. The format is biochemical. As to conditions: 25 nM Mpro, 25 μM substrate; read-out: COVID-19 Mpro IC50.
Setting [2] is: read-out: OC43 IC50 (uM) MEDIAN, median.
[3] abbreviates: Betacoronavirus 1, OC43, read-out: OC43 IC50 (uM) MEDIAN, median.

Read-outs that look alike come from different tables or passages of the source.

229E Mpro, sequence (P0C6X1 2966-3267): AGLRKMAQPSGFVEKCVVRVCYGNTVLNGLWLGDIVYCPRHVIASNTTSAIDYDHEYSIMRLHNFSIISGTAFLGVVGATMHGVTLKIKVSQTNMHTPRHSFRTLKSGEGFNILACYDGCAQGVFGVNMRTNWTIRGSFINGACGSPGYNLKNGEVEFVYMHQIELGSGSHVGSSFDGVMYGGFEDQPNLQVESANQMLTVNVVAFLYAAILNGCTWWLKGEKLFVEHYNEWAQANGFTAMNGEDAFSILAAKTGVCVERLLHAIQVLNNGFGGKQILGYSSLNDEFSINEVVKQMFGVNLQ

In turn, `CO[C@@H]1C[C@H](C(=O)N(c2ccc(S(F)(F)(F)(F)F)cc2)C(C(=O)NCC2(C)CCCN(C(=O)OC(C)(C)C)C2)c2cccnc2)N(C#N)C1` (single isomer, unassigned) [1290 Isomer 2] returned a concentration giving a half-maximal response (EC50) on 229E Mpro (229E Mpro EC50) of 2 to 10 µM. The values for the IC50 (in the assay on HCov OC43 (setting [2]); in assay [1]) were 2 to 10 µM and 10 to 30 µM, respectively.
For `CO[C@@H]1C[C@H](C(=O)N(c2ccc(S(F)(F)(F)(F)F)cc2)C(C)(C(=O)NC2CCC(F)(F)CC2)c2cnccn2)N(C#N)C1` (single isomer, unassigned) [1299 Isomer 1], on 229E Mpro (229E Mpro EC50), the EC50 is less than 2 µM. Besides, the IC50 (in the assay with HCov OC43 (setting [3]); in assay [1]) was 2 to 10 µM in each case.
Turning to `CO[C@@H]1C[C@H](C(=O)N(c2ccc(S(F)(F)(F)(F)F)cc2)C(C)(C(=O)NC2CCC(F)(F)CC2)c2cnccn2)N(C#N)C1` (single isomer, unassigned) [1299 Isomer 2], the EC50 on 229E Mpro (read-out: 229E Mpro EC50) was less than 2 µM. Moreover, the IC50 (in the assay with HCov OC43 (setting [2]); in assay [1]) was less than 2 µM each time.
At 229E Mpro (229E Mpro EC50), `CO[C@@H]1C[C@H](C(=O)N(c2ccc(S(F)(F)(F)(F)F)cc2)C(C(=O)NC(C)C2CCCCN2C(=O)OC(C)(C)C)c2cccnc2)N(C#N)C1` (single isomer, unassigned) [1303 Isomer 1] had an EC50 of less than 2 µM. Also, the IC50 (with HCov OC43 (setting [2]); in assay [1]) was 2 to 10 µM throughout.
For `CO[C@@H]1C[C@H](C(=O)N(c2ccc(S(F)(F)(F)(F)F)cc2)C(C(=O)NC(C)C2CCCCN2C(=O)OC(C)(C)C)c2cccnc2)N(C#N)C1` (single isomer, unassigned) [1303 Isomer 2.1], the EC50 on 229E Mpro (229E Mpro EC50) was 2 to 10 µM. The values for the IC50 (with HCov OC43 (setting [2]); in assay [1]) were 10 to 30 µM and 2 to 10 µM, respectively.
In turn, `CO[C@@H]1C[C@H](C(=O)N(c2ccc(S(F)(F)(F)(F)F)cc2)C(C(=O)NC(C)C2CCCCN2C(=O)OC(C)(C)C)c2cccnc2)N(C#N)C1` (single isomer, unassigned) [1303 Isomer 2.2] returned an EC50 at 229E Mpro (229E Mpro EC50) of less than 2 µM. Besides, the IC50 (with HCov OC43 (setting [2]); in assay [1]) was less than 2 µM in each case.
As for `CO[C@@H]1C[C@H](C(=O)N(c2ccc(S(F)(F)(F)(F)F)cc2)C(C(=O)NC(C)C2CCCCN2C(=O)OC(C)(C)C)c2cccnc2)N(C#N)C1` (single isomer, unassigned) [1303 Isomer 2], the EC50 at 229E Mpro (229E Mpro EC50) is less than 2 µM. The half-maximal inhibitory concentration (IC50) (in the assay with HCov OC43 (setting [2]); in assay [1]) was less than 2 µM each time.
As for `CO[C@@H]1C[C@H](C(=O)N(c2ccc(S(F)(F)(F)(F)F)cc2)C(C(=O)NC(C)C2CCCCN2C(=O)OC(C)(C)C)c2cccnc2)N(C#N)C1` (single isomer, unassigned) [1303 Isomer 3.1], the EC50 on 229E Mpro (229E Mpro EC50) is less than 2 µM. Further, the IC50 (in the assay on HCov OC43 (setting [2]); in assay [1]) was less than 2 µM throughout.
On 229E Mpro (229E Mpro EC50), `CO[C@@H]1C[C@H](C(=O)N(c2ccc(S(F)(F)(F)(F)F)cc2)C(C(=O)NC(C)C2CCCCN2C(=O)OC(C)(C)C)c2cccnc2)N(C#N)C1` (single isomer, unassigned) [1303 Isomer 3.2] came in with an EC50 of 10 to 30 µM. Further, the half-inhibitory concentration (IC50) (with HCov OC43 (setting [2]); in assay [1]) was greater than 30 µM throughout.
For the compound `CO[C@@H]1C[C@H](C(=O)N(c2ccc(S(F)(F)(F)(F)F)cc2)C(C(=O)NC(C)C2CCCCN2C(=O)OC(C)(C)C)c2cccnc2)N(C#N)C1` (single isomer, unassigned) [1303 Isomer 3], at 229E Mpro (229E Mpro EC50), the EC50 was less than 2 µM. In addition, the half-inhibitory concentration (IC50) (in the assay with HCov OC43 (setting [2]); in assay [1]) was less than 2 µM in each case.
At 229E Mpro (229E Mpro EC50), `Cc1nc[nH]c1C(C(=O)NC1CCC(F)(F)CC1)N(C(=O)[C@H]1C[C@@](C)(O)CN1C#N)c1ccc(S(F)(F)(F)(F)F)cc1` (single isomer, unassigned) [1324 Isomer 1] returned an EC50 of 10 to 30 µM. Further, the IC50 (in the assay with HCov OC43 (setting [2]); in assay [1]) was greater than 30 µM each time.
`Cc1nc[nH]c1C(C(=O)NC1CCC(F)(F)CC1)N(C(=O)[C@H]1C[C@@](C)(O)CN1C#N)c1ccc(S(F)(F)(F)(F)F)cc1` (single isomer, unassigned) [1324 Isomer 2]: at 229E Mpro (read-out: 229E Mpro EC50), the EC50 was in the range of 10 to 30 µM. In addition, the IC50 in the assay with HCov OC43 (setting [2]) fell in the range of 2 to 10 µM; in assay [1] it was 10 to 30 µM.
On 229E Mpro (229E Mpro EC50), `C[C@H](NC(=O)C(c1cncc(F)c1)N(C(=O)[C@H]1C[C@@](C)(O)CN1C#N)c1ccc(S(F)(F)(F)(F)F)cc1)c1ccccc1` (single isomer, unassigned) [1328 Isomer 1] had an EC50 of less than 2 µM. Besides, the IC50 (in the assay with HCov OC43 (setting [3]); in assay [1]) was less than 2 µM throughout.
For `C[C@H](NC(=O)C(c1cncc(F)c1)N(C(=O)[C@H]1C[C@@](C)(O)CN1C#N)c1ccc(S(F)(F)(F)(F)F)cc1)c1ccccc1` (single isomer, unassigned) [1328 Isomer 2], the EC50 on 229E Mpro (read-out: 229E Mpro EC50) was less than 2 µM. Also, the IC50 (with HCov OC43 (setting [2]); in assay [1]) was 2 to 10 µM throughout.
On 229E Mpro (229E Mpro EC50), `C[C@@]1(O)C[C@H](C(=O)N(c2ccc(-c3ccccc3)cc2)C(C(=O)NC2CCC(F)(F)CC2)c2cncc(F)c2)N(C#N)C1` (single isomer, unassigned) [1330 Isomer 1] had a concentration for a half-maximal effect (EC50) of less than 2 µM. Further, the IC50 (with HCov OC43 (setting [2]); in assay [1]) was less than 2 µM throughout.
As to `C[C@@]1(O)C[C@H](C(=O)N(c2ccc(-c3ccccc3)cc2)C(C(=O)NC2CCC(F)(F)CC2)c2cncc(F)c2)N(C#N)C1` (single isomer, unassigned) [1330 Isomer 2], the EC50 on 229E Mpro (229E Mpro EC50) lay within 2 to 10 µM. Besides, the values for the IC50 (with HCov OC43 (setting [2]); in assay [1]) were 10 to 30 µM and 2 to 10 µM, respectively.
In the case of `O=C(NC1CCC(F)(F)CC1)C(c1cncc(F)c1)N(C(=O)c1cnc[nH]1)c1ccc(C2CC2)cc1F` (single isomer, unassigned) [1336 Isomer 1, N-(4-cyclopropyl-2-fluorophenyl)-N-(2-((4,4-difluorocyclohexyl)amino)-1-(5-fluoropyridin-3-yl)-2-oxoethyl)-1H-imidazole-5-carboxamide], at 229E Mpro (229E Mpro EC50), the concentration giving a half-maximal response (EC50) lay within 2 to 10 µM. The results for the IC50 (with HCov OC43 (setting [3]); in assay [1]) were greater than 30 µM and 10 to 30 µM, respectively.
`O=C(NC1CCC(F)(F)CC1)C(c1cncc(F)c1)N(C(=O)c1cnc[nH]1)c1ccc(C2CC2)cc1F` (single isomer, unassigned) [1336 Isomer 2, N-(4-cyclopropyl-2-fluorophenyl)-N-(2-((4,4-difluorocyclohexyl)amino)-1-(5-fluoropyridin-3-yl)-2-oxoethyl)-1H-imidazole-5-carboxamide]: on 229E Mpro (229E Mpro EC50), the EC50 was in the range of 10 to 30 µM. Also, the IC50 with HCov OC43 (setting [2]) is greater than 30 µM; in assay [1] it was 10 to 30 µM.
Take `O=C(NC1CCC(F)(F)CC1)C(c1cncc(F)c1)N(C(=O)c1cnc[nH]1)c1ccc(S(F)(F)(F)(F)F)cc1` (single isomer, unassigned) [1337 Isomer 1, N-[2-[(4,4-difluorocyclohexyl)amino]-1-(5-fluoro-3-pyridyl)-2-oxo-ethyl]-N-[4-(pentafluoro-λ6-sulfanyl)phenyl]-1H-imidazole-5-carboxamide]: the EC50 at 229E Mpro (229E Mpro EC50) fell in the range of 2 to 10 µM. The results for the IC50 (in the assay on HCov OC43 (setting [3]); in assay [1]) were greater than 30 µM and 10 to 30 µM, respectively.
As to `O=C(NC1CCC(F)(F)CC1)C(c1cncc(F)c1)N(C(=O)c1cnc[nH]1)c1ccc(S(F)(F)(F)(F)F)cc1` (single isomer, unassigned) [1337 Isomer 2, N-[2-[(4,4-difluorocyclohexyl)amino]-1-(5-fluoro-3-pyridyl)-2-oxo-ethyl]-N-[4-(pentafluoro-λ6-sulfanyl)phenyl]-1H-imidazole-5-carboxamide], the EC50 on 229E Mpro (read-out: 229E Mpro EC50) lay within 2 to 10 µM. Also, the IC50 was greater than 30 µM with HCov OC43 (setting [2]) and 10 to 30 µM in assay [1].
As for `C[C@H](NC(=O)C(c1cncc(F)c1)N(C(=O)[C@H]1C[C@@](C)(O)CN1C#N)c1ccc(-c2ccccc2)cc1)c1ccccc1` (single isomer, unassigned) [1345 Isomer 1], the EC50 at 229E Mpro (229E Mpro EC50) was less than 2 µM. Besides, the IC50 (in the assay on HCov OC43 (setting [2]); in assay [1]) was less than 2 µM in each case.
Compound `C[C@H](NC(=O)C(c1cncc(F)c1)N(C(=O)[C@H]1C[C@@](C)(O)CN1C#N)c1ccc(-c2ccccc2)cc1)c1ccccc1` (single isomer, unassigned) [1345 Isomer 2] gave a 50% effective concentration (EC50) on 229E Mpro (229E Mpro EC50) of 10 to 30 µM. Further, the figures for the IC50 (in the assay on HCov OC43 (setting [2]); in assay [1]) were 10 to 30 µM and 2 to 10 µM, respectively.
For the compound `C[C@H](NC(=O)C(c1cccnc1)N(C(=O)c1ccco1)c1ccc(-c2ccccc2)cc1)c1ccccc1` (single isomer, unassigned) [1353 Isomer 1], the EC50 at 229E Mpro (229E Mpro EC50) is less than 2 µM. The half-maximal inhibitory concentration (IC50) was greater than 30 µM in the assay on HCov OC43 (setting [3]) and less than 2 µM in assay [1].
As to `C[C@H](NC(=O)C(c1cccnc1)N(C(=O)c1ccco1)c1ccc(-c2ccccc2)cc1)c1ccccc1` (single isomer, unassigned) [1353 Isomer 2], at 229E Mpro (229E Mpro EC50), the EC50 was greater than 30 µM. The IC50 (in the assay with HCov OC43 (setting [2]); in assay [1]) was greater than 30 µM in each case.
Turning to `C[C@H](NC(=O)C(c1cnccn1)N(C(=O)c1ccco1)c1ccc(-c2ccccc2)cc1)c1ccccc1` (single isomer, unassigned) [1355 Isomer 1], the EC50 on 229E Mpro (229E Mpro EC50) is 2 to 10 µM. The IC50 is greater than 30 µM in the assay with HCov OC43 (setting [3]) and less than 2 µM in assay [1].
On to `C[C@H](NC(=O)C(c1cnccn1)N(C(=O)c1ccco1)c1ccc(-c2ccccc2)cc1)c1ccccc1` (single isomer, unassigned) [1355 Isomer 2], for which the EC50 at 229E Mpro (read-out: 229E Mpro EC50) fell in the range of 2 to 10 µM. In addition, the figures for the IC50 (in the assay on HCov OC43 (setting [2]); in assay [1]) were greater than 30 µM and less than 2 µM, respectively.
The compound `CC(C)(C)c1ccc(N(C(=O)[C@H]2CCC(C)(C)N2C#N)C(C(=O)NC2CCCCC2)c2cccnc2)cc1` (single isomer, unassigned) [Compound 262 Isomer 1] returned an EC50 at 229E Mpro (229E Mpro EC50) greater than 30 µM. Also, the half-inhibitory concentration (IC50) in the assay with HCov OC43 (read-out: OC43 IC50 (uM) MEDIAN, median, listed as 262 Isomer 1) is greater than 30 µM; in assay [1] it was greater than 30 µM.

These data come from US20220380347A1, “INHIBITORS OF CYSTEINE PROTEASES AND METHODS OF USE THEREOF” (Pardes Biosciences, Inc., priority 2020, published 2022).
